Data from patent publication US20250154169A1, “COMPOUNDS AND METHODS FOR MODULATING SPLICING” (REMIX THERAPEUTICS INC., priority 2021, published 2025).
Where two headings read alike, the source gives them in different places.

How the values were obtained:
Type in all cases: cell-based, human
[1] = system: HTT mRNA; assay: Splicing RT-qPCR assay, HTT canonical (CJ) and alternative (AJ) junction mRNA; settings: Homo sapiens
Outline: (§1)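 Read-out is the abundance of canonical-junction versus new alternative-exon-junction mRNA, determined by real-time qPCR after cDNA synthesis and normalized to a housekeeping gene. It is measured in A673 or K562 cells exposed to compounds for 24 h, top dose 10 uM.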

[2] = system: MYB mRNA; assay: Splicing RT-qPCR assay, MYB canonical (CJ) and alternative (AJ) junction mRNA; settings: Homo sapiens
Outline: as §1

[3] = system: SMN2 mRNA; assay: Splicing RT-qPCR gene panel, SMN2 canonical junction (CJ) mRNA; settings: Homo sapiens, Tables 4A/4B, read-out: SMN2 (IC50, decrease in CJ mRNA, gene panel)
Outline: (§2)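 Cells (A673 in DMEM/10% FBS, K562 in IMDM/10% FBS) got compound for 24 h, top dose 10 uM, 11 points, 3-fold steps, DMSO ≤0.25%. Lysates went to RT-qPCR for the canonical exon-exon junction; ΔΔCt against housekeeper and DMSO gave RQ, then percentage response.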

[4] = system: Target C mRNA; assay: Splicing RT-qPCR gene panel, Target C canonical junction (CJ) mRNA; settings: Homo sapiens, Tables 4A/4B, read-out: Target C (IC50, decrease in CJ mRNA, gene panel)
Outline: as §2

[5] = system: HTT mRNA; assay: Splicing RT-qPCR gene panel, HTT canonical junction (CJ) mRNA; settings: Homo sapiens, Tables 4A/4B, read-out: HTT (IC50, decrease in CJ mRNA, gene panel)
Outline: as §2

[6] = 24 h, A673 or K562 cells, 24 hours compound treatment, read-out: HTT CJ (IC50, decrease in canonical junction mRNA)
[7] = A673 or K562 cells, 24 hours compound treatment, read-out: HTT AJ (AC50, increase in alternative junction mRNA)
[8] = 24 h, A673 or K562 cells, 24 hours compound treatment, RT-qPCR, read-out: MYB AJ (AC50, increase in alternative junction mRNA)
[9] = 24 h, A673 or K562 cells, 24 hours compound treatment, RT-qPCR, read-out: MYB CJ (IC50, decrease in canonical junction mRNA)
[10] = Tables 4A/4B, canonical junction qPCR panel, read-out: MYB (IC50, decrease in CJ mRNA, gene panel)
[11] = Table 3B, alternative junction mRNA, read-out: HTT AJ (AC50, increase in AJ mRNA)
[12] = Table 3B, canonical junction mRNA, read-out: HTT CJ (IC50, decrease in CJ mRNA)
[13] = Table 3B, canonical junction mRNA, RT-qPCR, read-out: MYB CJ (IC50, decrease in CJ mRNA)
[14] = Table 3B, alternative junction mRNA, RT-qPCR, read-out: MYB AJ (AC50, increase in AJ mRNA)

IC50 [1, 6] [nM]	IC50 [2, 9] [nM]	IC50 [2, 10] [nM]	IC50 [3] [nM]	IC50 [4] [nM]	IC50 [5] [nM]	IC50 [1, 12] [nM]	IC50 [2, 13] [nM]	SMILES	AC50 [1, 7] [nM]	AC50 [2, 8] [nM]	AC50 [1, 11] [nM]	AC50 [2, 14] [nM]
> 10000	< 100	< 100	< 100	> 10000	> 10000	–	–	CCn1cc2c(N3CCC(NC)C3)ccc(C(=O)Nc3cc(F)c4nc(C)cn4c3)c2n1 (stereo not drawn) [Compound 374, 2-ethyl-N-{8-fluoro-2-methylimidazo[1,2-a]pyridin-6-yl}-4-[3-(methylamino)pyrrolidin-1-yl]indazole-7-carboxamide]	> 10000	< 100	–	–
1000 to 10000	100 to 1000	100 to 1000	< 100	1000 to 10000	1000 to 10000	–	–	Cc1cn2cc(NC(=O)c3ccc(N4CCNC[C@@H]4C)c4cn(C)nc34)cc(F)c2n1 [Compound 446, N-{8-fluoro-2-methylimidazo[1,2-a]pyridin-6-yl}-2-methyl-4-[(2S)-2-methylpiperazin-1-yl]indazole-7-carboxamide]	1000 to 10000	100 to 1000	–	–
–	–	< 100	< 100	< 100	< 100	< 100	< 100	Cc1cn2cc(NC(=O)c3cnc(N4CCC(NC5CC5)C4)c4cn(C)nc34)cc(F)c2n1 (stereo not drawn) [Compound 966]	–	–	< 100	< 100
1000 to 10000	100 to 1000	100 to 1000	< 100	> 10000	1000 to 10000	–	–	COCCn1cc2c(N3C[C@@H](C)N[C@@H](C)C3)ccc(C(=O)Nc3cc(F)c4nc(C)cn4c3)c2n1 [Compound 306, 4-[(3R,5S)-3,5-dimethylpiperazin-1-yl]-N-{8-fluoro-2-methylimidazo[1,2-a]pyridin-6-yl}-2-(2-methoxyethyl) indazole-7-carboxamide]	1000 to 10000	< 100	–	–
1000 to 10000	< 100	< 100	< 100	1000 to 10000	1000 to 10000	–	–	Cc1cn2cc(NC(=O)c3ccc(N4CCC5(CC4)CNC5)c4cn(C)nc34)cc(F)c2n1 [Compound 348, 4-{2,7-diazaspiro[3.5]nonan-7-yl}-N-{8-fluoro-2-methylimidazo[1,2-a]pyridin-6-yl}-2-methylindazole-7-carboxamide]	1000 to 10000	< 100	–	–
–	–	< 100	< 100	100 to 1000	100 to 1000	100 to 1000	< 100	CCNC1CCN(c2ccc(C(=O)Nc3cc(F)c4nc(C)cn4c3)n3nc(CC)cc23)C1 (stereo not drawn) [Compound 959]	–	–	100 to 1000	< 100
100 to 1000	< 100	< 100	< 100	1000 to 10000	100 to 1000	–	–	CC1=NC2C=C(NC(=O)c3ccc(N4CCNC(C)(C)C4)c4cn(C)nc34)C=C(F)C2=N1 (stereo not drawn) [Compound 240]	100 to 1000	< 100	–	–
> 10000	100 to 1000	100 to 1000	< 100	> 10000	> 10000	–	–	Cc1cn2cc(NC(=O)c3ccc(N4CCNCC4)c4cn(Cc5cn(C)nn5)nc34)cc(F)c2n1 [Compound 368, N-{8-fluoro-2-methylimidazo[1,2-a]pyridin-6-yl}-2-[(1-methyl-1,2,3-triazol-4-yl)methyl]-4-(piperazin-1-yl) indazole-7-carboxamide; trifluoroacetic acid]	> 10000	100 to 1000	–	–
100 to 1000	< 100	< 100	1000 to 10000	100 to 1000	100 to 1000	–	–	Cc1cn2cc(NC(=O)c3ccc(C4CCN(C)CC4)c4cn(C)nc34)cc(F)c2n1 [Compound 209]	100 to 1000	< 100	–	–
100 to 1000	< 100	< 100	< 100	100 to 1000	100 to 1000	–	–	Cc1cn2cc(NC(=O)c3ccc(N4CCC5(CCCN5)CC4)c4cn(C)nc34)cc(F)c2n1 [Compound 349, 4-{1,8-diazaspiro[4.5]decan-8-yl}-N-{8-fluoro-2-methylimidazo[1,2-a]pyridin-6-yl}-2-methylindazole-7-carboxamide]	100 to 1000	< 100	–	–
–	–	100 to 1000	< 100	1000 to 10000	1000 to 10000	1000 to 10000	100 to 1000	CCn1cc2c(N3CCN(C)CC3)ncc(C(=O)Nc3cc(F)c4nc(C)cn4c3)c2n1 [Compound 954]	–	–	1000 to 10000	100 to 1000
> 10000	> 10000	> 10000	> 10000	> 10000	> 10000	–	–	CN[C@@H]1CCN(c2ccc(C(=O)Nc3cn4cc(C)nc4c(N(C)C)n3)c3nn(C)cc23)C1 [Compound 425]	> 10000	> 10000	–	–
1000 to 10000	100 to 1000	100 to 1000	< 100	> 10000	1000 to 10000	–	–	Cc1cc(NC(=O)c2ccc(N3CCNCC3)c3cn(C)nc23)cc2cn(C)nc12 [Compound 320, N-(2,7-dimethylindazol-5-yl)-2-methyl-4-(piperazin-1-yl) indazole-7-carboxamide; trifluoroacetic acid]	1000 to 10000	100 to 1000	–	–
> 10000	1000 to 10000	1000 to 10000	100 to 1000	> 10000	> 10000	–	–	Cc1cn2cc(NC(=O)c3cc(C)c(N4CCNCC4)c4cn(C)nc34)cc(F)c2n1 [Compound 300]	> 10000	100 to 1000	–	–
100 to 1000	100 to 1000	100 to 1000	< 100	100 to 1000	100 to 1000	–	–	CCn1cc2c(N3CCC(N(C)C)C3)ccc(C(=O)Nc3cc(F)c4nc(C)cn4c3)c2n1 (stereo not drawn) [Compound 375, 4-[3-(dimethylamino)pyrrolidin-1-yl]-2-ethyl-N-{8-fluoro-2-methylimidazo[1,2-a]pyridin-6-yl}indazole-7-carboxamide]	100 to 1000	100 to 1000	–	–
–	–	100 to 1000	< 100	100 to 1000	100 to 1000	100 to 1000	100 to 1000	CCc1cc2c(N3CCNCC3)ccc(C(=O)Nc3cc(F)c4nc(C)cn4c3)n2n1 [Compound 960]	–	–	100 to 1000	100 to 1000
100 to 1000	100 to 1000	100 to 1000	< 100	1000 to 10000	100 to 1000	–	–	Cc1cn2cc(NC(=O)c3ccc(N4CCNCC4)c4nn(C)nc34)cc(F)c2n1 [Compound 427, N-{8-fluoro-2-methylimidazo[1,2-a]pyridin-6-yl}-2-methyl-7-(piperazin-1-yl)-1,2,3-benzotriazole-4-carboxamide]	100 to 1000	100 to 1000	–	–
1000 to 10000	< 100	< 100	< 100	> 10000	1000 to 10000	–	–	Cc1cn2cc(NC(=O)c3ccc(N4CCNCC4)c4cn(Cc5cnco5)nc34)cc(F)c2n1 [Compound 366, N-{8-fluoro-2-methylimidazo[1,2-a]pyridin-6-yl}-2-(1,3-oxazol-5-ylmethyl)-4-(piperazin-1-yl) indazole-7-carboxamide]	1000 to 10000	< 100	–	–
–	–	< 100	< 100	1000 to 10000	100 to 1000	100 to 1000	< 100	Cc1cn2cc(NC(=O)c3ccc(N4CCC(N(C)C)CC4)c4csnc34)cc(F)c2n1 [Compound 979]	–	–	100 to 1000	< 100
> 10000	1000 to 10000	1000 to 10000	< 100	> 10000	> 10000	–	–	Cc1cn2cc(NC(=O)c3ccc(N4CCNCC4)c4cc(C)oc34)cc(C)c2n1 [Compound 267]	1000 to 10000	100 to 1000	–	–

SMILES	IC50 [1, 6] [nM]	IC50 [2, 9] [nM]	IC50 [2, 10] [nM]	IC50 [3] [nM]	IC50 [4] [nM]	IC50 [5] [nM]	IC50 [1, 12] [nM]	IC50 [2, 13] [nM]	AC50 [1, 7] [nM]	AC50 [2, 8] [nM]	AC50 [1, 11] [nM]	AC50 [2, 14] [nM]
Cc1cn2cc(NC(=O)c3ccc(N4C[C@H]5CC[C@@H](C4)N5)c4cn(C)nc34)cc(F)c2n1 [Compound 260]	100 to 1000	< 100	< 100	1000 to 10000	1000 to 10000	100 to 1000	–	–	100 to 1000	< 100	–	–
